{"source": "patent US10286038B2", "about": "“Lysosome membrane protein 2 (LIMP-2) based peptides and related uses” (Northwestern University, priority 2016, dated 2019)", "key": {"[1]": {"target": "T1, recombinant N370S mutant GC (Homo sapiens, UniProt P04062, N409S)", "T1 sequence (P04062 40-536 N409S)": "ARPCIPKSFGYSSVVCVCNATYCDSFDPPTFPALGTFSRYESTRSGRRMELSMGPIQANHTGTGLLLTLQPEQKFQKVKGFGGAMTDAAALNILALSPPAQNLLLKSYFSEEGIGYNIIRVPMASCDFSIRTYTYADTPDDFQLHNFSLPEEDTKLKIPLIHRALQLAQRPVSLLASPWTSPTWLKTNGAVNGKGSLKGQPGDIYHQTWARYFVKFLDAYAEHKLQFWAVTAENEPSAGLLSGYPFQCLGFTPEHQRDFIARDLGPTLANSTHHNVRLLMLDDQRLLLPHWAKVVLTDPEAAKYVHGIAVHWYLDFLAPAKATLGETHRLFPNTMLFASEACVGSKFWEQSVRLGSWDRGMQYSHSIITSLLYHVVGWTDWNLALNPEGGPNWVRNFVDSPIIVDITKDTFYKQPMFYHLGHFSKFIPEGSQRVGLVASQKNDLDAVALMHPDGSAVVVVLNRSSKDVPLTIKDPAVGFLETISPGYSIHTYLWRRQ", "assay": "activity assay of recombinant N370S mutant GC (4-MU substrate)", "type": "biochemical", "conditions": "cell-free, tenfold molar amount of peptide, relative to buffer control", "source_text": "To determine the enzymatic activity of the recombinant enzymes, lyophilized enzymes were reconstituted in the NaPi buffer described above. The lyophilized samples of wild-type GC (Cerezyme®) and the custom-made recombinant N307S mutant enzyme contain 0.01% polysorbate 80 (Tween 80) (see prescription information for Cerezyme® at the website for Cerezyme®). As indicated in our experiments, the concentration of the detergent is sufficient to support active GC enzyme and to perform the in vitro GC activity assays without adding further detergents to the reaction mix. […]\nUsing the fluorescent substrate 4-MU (FIG. 3K), 10 μL of the recombinant enzyme/peptide mixture (0.1 nmol GC/N370S previously incubated with 1 nmol helix 5 TAT peptide in 50 mM NaPi buffer; total incubation volume 40 μL) were incubated directly with 60 μL of 0.2 M sodium citrate buffer and 10 μL of the substrate (5 mM dissolved in 0.2 M sodium citrate buffer) in a black-bottomed 96-well dish (Nunc no. 446473; Thermo Fisher Scientific). […] The fluorescence was assessed at an excitation wavelength of 365 nm and an emission wavelength of 445 nm in a SpectraMax i3 plate reader (Molecular Devices). […]"}, "[2]": {"target": "bovine serum albumin (BSA) (Bos taurus, UniProt P02769)", "sequence (P02769 25-607)": "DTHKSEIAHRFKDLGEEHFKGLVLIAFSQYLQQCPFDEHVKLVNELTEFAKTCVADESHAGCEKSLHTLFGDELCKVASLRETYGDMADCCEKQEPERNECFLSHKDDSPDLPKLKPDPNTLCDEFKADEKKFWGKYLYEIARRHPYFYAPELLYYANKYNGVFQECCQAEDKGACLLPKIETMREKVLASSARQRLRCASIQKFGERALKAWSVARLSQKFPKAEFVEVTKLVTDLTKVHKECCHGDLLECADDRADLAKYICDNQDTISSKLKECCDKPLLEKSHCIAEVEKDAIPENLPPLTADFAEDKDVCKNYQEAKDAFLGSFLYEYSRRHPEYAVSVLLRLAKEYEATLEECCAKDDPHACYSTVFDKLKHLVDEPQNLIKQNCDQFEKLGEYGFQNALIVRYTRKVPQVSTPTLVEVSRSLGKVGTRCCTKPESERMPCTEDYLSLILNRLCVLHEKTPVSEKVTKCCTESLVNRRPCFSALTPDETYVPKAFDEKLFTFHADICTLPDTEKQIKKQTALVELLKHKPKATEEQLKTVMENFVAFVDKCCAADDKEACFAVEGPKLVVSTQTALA", "assay": "peptide pulldown of albumin (BSA)", "type": "binding", "conditions": "neutral pH", "protocol": "FIG. 6: Characterization of a helical LIMP-2-derived peptide. […] B) In vitro peptide pulldown assay: helix 5 peptides were incubated with recombinant LAMAN and bovine serum albumin (BSA). INPUT and BOUND fractions were loaded onto SDS-PAGE and proteins visualized by coomassie staining (CBB). C) Densitometry of LAMAN and BSA protein bound to peptide, normalized to protein fraction bound to beads only (buffer; n=2-3). D) and E) Activity assay of recombinant (D) GC and (E) LAMAN incubated with different excess molarities (1×-10×) of helix 5 peptide (n=β-5) and LIMP-2 ectodomain (n=4). GC activities were normalized and statistical analyses compared to 0 input of BSA/helix 5 peptide. F) Peptide-pulldown of GC constructs overexpressed in N2a cells with subsequent Western blot analysis (α-hGC) utilizing helix 5 and the 3×D control peptide as a negative binding control. G) Densitometry of GC protein bound to peptides; each construct is normalized to buffer only. H) Live-cell lysosomal GC activity of H4 cells after uptake of helix 5 and 3×D TAT peptides. GC activity was measures every 30 minutes up to 3.5 hours. Cells were treated with DMSO or the “lysosomal inhibitor” bafilomycinA1. […] Lysosomal activity is calculated by subtracting the AUC of DMSO with the AUC of bafilomycinA1 treated samples (n=4). […] GC activity was measured from 16-74 hours and is shown in mU/mg (n=3). […]"}}, "data": [{"substance": "Biotin-Ttds-KFERQLREIIEAMLKAYQQKLFVTHTVDEYGRKKRRQRRR [helix 5 TAT-peptide]", "values": [{"measurement": "increase in the activity of the N370S mutant GC", "setting": "[1]", "result": "four-fold increase"}]}, {"substance": "Biotin-Ttds-LREIIEAMLKAYQQKLFVTHTVDE [helix 5 peptide]", "values": [{"measurement": "interaction with albumin (BSA)", "setting": "[2]", "result": "no interaction"}]}]}
